Results as given in patent US20180185520A1, “COLLAGEN IMAGING COMPOSTIONS” (Collagen Medical, LLC, priority 2015, published 2018).

Assays:
liver fibrosis [1] = experiment: Detection of liver fibrosis by MRI, mouse CCl4 model; format: in vivo, C57BL/6 male mice; details: 10 μmol/kg i.v., out to 45 minutes, 7T
Method: Strain C57BL/6 male mice at approximately 3 weeks of age were purchased from Jackson Laboratory (Bar Harbor, Me.). All mice were randomly assigned to two groups: a control group (n=3) and a CCl4 group (n=8). Mice were treated three times a week for 10 weeks with either 0.04 mL of a 40 percent solution of CCl4 (Sigma, St. Louis, Mo.) in olive oil or with vehicle (olive oil only) by oral gavage. Animals from both models were imaged one week after the last injection. Mice were imaged on a 7T pre-clinical […] scanner (Bruker Biospin, Billerica, Mass.). Mice were imaged before and immediately after a 10 μmol/kg intravenous injection of COMPOUND ID NO. 1 and imaging was repeated out to 45 minutes post-injection. Following imaging, animals were sacrificed 50 min post COMPOUND ID NO. 1 injection and sections of each of the liver lobes were taken for gadolinium analysis by ICP-MS, hydroxyproline (Hyp) determination, and histology (Sirius Red staining). From the MRI data, the contrast to noise ratio (CNR, where CNR=(signal liver-signal muscle)/noise) was calculated for the liver before and at repeated time points after 10 μmol/kg injection of the COMPOUND ID NO. 1. After probe COMPOUND ID NO. […] Plots of CNR as a function of time post injection were made and the area under this CNR vs time curve was calculated. […] 1 in liver as assessed by gadolinium measurement (R^2=0.83). […]

myocardium = format: in vivo; details: Compound ID No. 1 7.5 μmol/kg (canine) vs EP-3600 12.3 μmol/kg (pig)
Method: To mimic severe ischemia, a canine model was used in which an inflatable variable vascular occluder was placed around the left anterior descending coronary artery (LAD) to allow occlusion and reperfusion. Imaging was performed on a 3T clinical scanner 4 days after implantation of the occluder. The conventional saturation recovery pulse sequence for stress perfusion imaging was compared with a segmented inversion method. The purpose of the segmented inversion method was to leverage the steady-state properties of Compound ID No. 1. This segmented inversion recovery pulse sequence provides greater T1 weighting, higher spatial resolution, and greater myocardial tissue contrast. Additionally, since imaging is delayed, the entire heart can be imaged. After baseline […] scanning, the balloon was inflated. […]
To assess relative perfusion, labeled microspheres were administered at 3 timepoints in the study. […] At autopsy under ultraviolet light, the hypo-perfused myocardium was differentiated from normal myocardium due to the lack of fluorescence in the hypo-perfused tissue. Based on the fluorescence, a sample of the ischemic territory and a sample of the remote myocardium were taken for ex vivo analysis. These tissue samples were weighed, digested in nitric acid, and analyzed for the elements La, Au, Lu (the three microsphere injections) and gadolinium (Compound ID No. 1) using ICP-MS. […]

liver fibrosis [2] = experiment: Detection of liver fibrosis by MRI, rat bile duct ligation model; format: in vivo, male CD rats; details: 10 μmol/kg i.v., 30 minutes, 1.5 tesla
Excerpt: Liver fibrosis was induced in male CD rats (n=8) by ligation of the common bile duct (Charles River Labs, Wilmington, Mass.). Control animals (n=12) underwent a control procedure. Rats were imaged 19 days following ligation. Rats were imaged on a 1.5-tesla clinical MRI scanner (Siemens Healthcare, Malvern, Pa.) using a home-built, transmit-receive solenoid coil. Animals were anesthetized with 1-2% isoflurane and respiration rate was monitored with a small animal physiological monitoring system (SA Instruments, Inc., Stony Brook, N.Y.). Respiratory-gated, 3D Inversion Recovery (IR) Fast Low Angle Shot (FLASH) images were acquired prior to and 30 minutes following intravenous administration of 10 μmol/kg COMPOUND ID NO. 1. A non-selective inversion pulse was used and images were acquired with inversion recovery times of 50, 100, 200, 250, 300, 400 and 1000 ms. Image acquisition parameters consisted of an echo time of TE=2.44 ms, field-of-view FOV=120×93 mm, matrix=192×150 (0.625 mm in-plane resolution), slice thickness=0.6 mm, and 36 image slices. […] Following imaging, animals were sacrificed and liver tissue was subjected to pathologic scoring of fibrosis and analyzed for hydroxyproline content. […]
Liver fibrosis was detected by MRI by measuring the change in liver R1 after injection of COMPOUND ID NO. […]

CC(C)C[C@H](NC(=O)[C@@H]1CSSC[C@H](NC(=O)[C@H](Cc2c[nH]cn2)NC(=O)[C@H](Cc2c[nH]c3ccccc23)NC(=O)[C@H](CCCCNC(=O)CC[C@H](C(=O)O)N2CCN(CC(=O)O)CCN(CC(=O)O)CCN(CC(=O)O)CC2)NC(=O)CNC(=O)CC[C@H](C(=O)O)N2CCN(CC(=O)O)CCN(CC(=O)O)CCN(CC(=O)O)CC2)C(=O)N[C@@H]([C@@H](C)O)C(=O)N[C@@H]([C@@H](C)O)C(=O)N[C@@H](CCCCNC(=O)CC[C@H](C(=O)O)N2CCN(CC(=O)O)CCN(CC(=O)O)CCN(CC(=O)O)CC2)C(=O)N[C@@H](Cc2ccccc2)C(=O)N2CCC[C@H]2C(=O)N[C@@H](Cc2c[nH]cn2)C(=O)N[C@@H](Cc2c[nH]cn2)C(=O)N[C@@H](Cc2ccc(O)cc2)C(=O)N1)C(=O)N[C@@H](Cc1ccc(O)cc1)C(=O)N[C@@H](Cc1ccc(-c2ccccc2)cc1)C(N)=O [Compound ID No. 1]
area under the CNR vs time curve (liver) (liver fibrosis [1]; CCl4 treated mice): 1447±192 | area under the CNR vs time curve (liver) (liver fibrosis [1]; vehicle (olive oil) treated control mice given the probe): 889±173 | ΔCNR relative to EP-3600 (fold higher) (myocardium): 3 to 4 fold | ΔR1 (change in liver R1 after injection) (liver fibrosis [2]; BDL animals, 19 days after ligation): 0.49 ± 0.22 s⁻¹ | ΔR1 (change in liver R1 after injection) (liver fibrosis [2]; sham animals): 0.15 ± 0.14 s⁻¹
